Measured values published in patent US10273313B2, “Multimeric mannosides, a process for preparing the same and their uses as a drug” (CENTRE NATIONAL DE LA RECHERCHE SCIENTIFIQUE, priority 2012, dated 2019).

What was measured:
UTI89 E. coli = experiment: Inhibition of haemagglutination (Example 19); assay type: cell-based, Escherichia coli; settings: two-fold dilution from 1 mM
Protocol: Interaction of E. coli FimH adhesins with the glycocalyx of guinea pig erythrocytes forms a cross-linked network into the wells. Glycoconjugates added in a two-fold dilution series prevents the agglutination reaction. The inhibition titer is defined as the lowest concentration of the glycoconjugate at which haemagglutination is still inhibited. UTI89 E. coli were grown statically overnight in LB at 37° C., washed three times in ice-cold phosphate-buffered saline and resolubilized. A two-fold dilution of glycoconjugates was prepared in 25 μL 20 mM HEPES pH 7.4 with 150 mM NaCl, starting from 1 mM as the highest concentration. The bacterial solution (25 μL) was added to the two-fold dilution series of the compound. Finally 50 μl of guinea pig red blood cells, washed in buffer and diluted to 5%, were added to a final 100 μL and left on ice for 30 min. before read-out. Due to serial dilutions, the maximal error is ±one well, or a factor two (FIG. 2).

lectin domain of FimH = target: T1, lectin domain of FimH (Escherichia coli, UniProt P08191); experiment: Surface plasmon resonance solution competition assay; assay type: binding; settings: solution affinity
T1 construct: The lectin domain of FimH was expressed as described previously and purified at pH 4.0; made in house
T1 sequence (P08191 22-179): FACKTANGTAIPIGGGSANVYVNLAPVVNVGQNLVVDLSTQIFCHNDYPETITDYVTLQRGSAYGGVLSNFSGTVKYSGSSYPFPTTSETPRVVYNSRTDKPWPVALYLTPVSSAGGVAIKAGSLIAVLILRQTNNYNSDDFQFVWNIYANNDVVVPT
Protocol: The affinity of the compounds was first evaluated and then measured in a surface plasmon resonance solution competition assay. The lectin domain of FimH was expressed as described previously and purified at pH 4.0 in 50 mM HCOOH on a SPFF (sulfopropyl fast flow) ion exchange column (GE Healthcare). A CM5 sensor chip (Biacore, GE Healthcare) has been coated with a layer of amino-functionalized monovalent heptyl mannoside to 60 RU (response units) and the kinetics of FimH binding to the sensor chip has been determined. All data collection have been performed in HBS buffer complemented with 3 mM EDTA and 0.01% Tween20. Regeneration was done with a single 10 s injection of 100 mM NaOH in water.
The solution affinity provided by the Biacore software uses the equation (B−A−Kd)/2+(0.25*(A+B+Kd)^2−A*B)^0.5, with B presenting the uninhibited concentration of FimH, and A the variable compound concentration.

FimH [1] = target: T2, FimH (Escherichia coli, UniProt P08191); experiment: Isothermal titration calorimetry of compound 6; assay type: binding
Protocol: For compound 6 (example 3), the enthalpy, the affinity equilibrium constant Ka and the molar ratio have moreover been measured using ITC. Integrated heat effects were analyzed by nonlinear regression using a single-site binding model (Origin 7.0). The experimental data fitted to a theoretical titration curve gave the association constant (Ka), the enthalpy of binding (ΔH) and the molar ratio n. The entropic contribution to the affinity and the change in Gibbs free energy (ΔG) have been calculated from the equation ΔG=ΔH−TΔS=−RTlnKa, where T is the absolute temperature and R is the molar gas constant (8.314 J·mol−1·K−1).
Target sequence in this assay (P08191 22-179): as above

[2] = tested on: CD-associated E. coli strain AIEC LF82; experiment: Hemagglutination inhibition (HAI) with AIEC LF82, guinea pig erythrocytes; assay type: cell-based, Escherichia coli
Protocol: AIEC adhesion to the gut occurs through the binding of FimH adhesins to the mannosylated glycans of intestinal cells. This scenario was first mimicked here with the highly mannosylated glycocalyx of guinea pig erythrocytes.
A two-fold dilution series of the antagonists was added to wells containing guinea pig erythrocytes and AIEC LF82 bacteria. The formation of the cross-linked network (hemagglutination) due to the interaction of the E. coli FimH adhesins with the glycocalyx of the erythrocytes was prevented at a certain concentration of inhibitors. The lowest concentration at which hemagglutination is still inhibited is defined as the inhibition titer of the antagonist. HM was included in the assay to obtain a relative inhibitory concentration (rIC) for the antagonists by dividing the inhibitory concentration (IC) of the substance of interest by the value for HM. In fact, rICs are more accurate than rough inhibition titers to compare the potency of antagonists evaluated in different assays.

human Jurkat cells = experiment: Prevention of FimH-induced apoptosis of Jurkat cells (24 h)
Protocol: Eventually, we tested the ability of mannose-based inhibitors to prevent the induction of cell death of human Jurkat cells under the treatment with FimH. We cultures cells with the indicated compound for 24 h and counter percentage of viable (AnV−/Pi−), apoptotic (AnV+/Pi−) and necrotic cells (AnV+/PI+). […] 2. […] 3.
Apoptosis was induced by UV-B irradiation with 90 mJ/cm^2, apoptosis of human PMN cells was induced by 24 h aging. To quantify the rate of apoptosis, cells were analyzed by flow cytometry or fluorescent microscopy. Amongst other features, apoptosis is characterized by blebbing of the cellular membrane, leading to a decrease in the forward scatter (FSC) and an increase in the sideward scatter (SSC). For detection of phosphatidylserine (PS) exposure on the cell surface staining with FITC conjugated annexin V (Böhringer, Mannheim, Germany) in combination with propidium iodide (PI) (AxV/PI) was performed. 200.000 cells were stained for 30 minutes at 4° C. with 200 ng of AxV-FITC and 500 ng propidium iodide (PI) in 500 μl Ringer's solution [Nicoletti, Migliorati, Pagliacci, Grignani and Riccardi, A rapid and simple method for measuring thymocyte apoptosis by propidium iodide staining and flow cytometry. J Immunol Methods, 1991. 139.271-9]. The samples were immediately analyzed by flow cytometry of fluorescent microscopy.

FimH [3] = target: T2, FimH; assay type: binding; settings: competitive ELISA
Protocol: Journal of the American Society for Mass Spectrometry, 2009. […] Tested compounds were added to wells following with FimH treatment.
Plates were coated with 100 μl of 10 mg/ml solution of RNAse-B in 100 mM carbonate/bicarbonate buffer pH 9.6. […] 2 h. Then washed three times with 10 mM PBS containing 0.05% Tween-20. […] Wells were washed three times with 10 mM PBS+0.05% Tween-20. 100 μl of anti-body conjugated to horseradish peroxidase (1:5000) was added in buffer and incubated for 1 h at room temperature. Then washed three times with 10 mM PBS+0.05% Tween-20. Added 100 μl of TMB and incubated in dark for 2-5 min. The reaction was stopped with 100 μl/well 1N sulfuric acid. Plate absorbance was analyzed at 450 nm using microplate reader.
Target sequence in this assay (P08191 22-300): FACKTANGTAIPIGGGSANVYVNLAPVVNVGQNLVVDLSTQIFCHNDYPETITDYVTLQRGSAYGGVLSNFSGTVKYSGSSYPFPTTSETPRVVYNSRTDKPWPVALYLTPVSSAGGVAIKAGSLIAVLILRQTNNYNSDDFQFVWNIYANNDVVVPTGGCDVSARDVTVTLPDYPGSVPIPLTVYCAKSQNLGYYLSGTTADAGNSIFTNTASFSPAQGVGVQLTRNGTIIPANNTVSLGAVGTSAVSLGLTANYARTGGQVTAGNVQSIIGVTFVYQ

[4] = tested on: AIEC strain LF82 adhesion to T84 intestinal epithelial cells; experiment: Adhesion assay on T84 cells with thiazolylaminomannosides (Example 22.3); assay type: cell-based, Escherichia coli
Protocol: T84 Intestinal Epithelial cells (overexpressing the receptor CEACAM6) were beforehand incubated for 1 h with the synthetic thiazolylaminomannosides 6-20 (examples 3-17) at different concentrations. Each compound was tested four times at concentrations of 0.1, 1, 10 and 100 μM.
The cells were then infected in the presence of inhibitory compounds by the AIEC strain of reference LF82 for 3 hours at a multiplicity of infection of 10 bacteria to a cell. After 3 h of incubation, the monolayer was washed and the number of AIEC bacteria associated with cells was counted. The level of adhesion of AIEC LF82 strain in the presence of inhibitors (residual adhesion) was expressed relatively to the level of adherence in the absence of any treatment (considered 100%) (FIG. 10).

[5] = tested on: AIEC LF82 bacteria on colonic tissue from transgenic mice expressing human CEACAM6; experiment: Ex-vivo adhesion assay on colonic tissue of CEABAC10 mice; design: species or system CEABAC10 transgenic mice
Protocol: E. coli strain LF82 was isolated from a chronic ileal lesion of a patient with Crohn's disease (CD). Bacteria were grown routinely in Luria-Bertani (LB) broth overnight at 37° C.
Adhesion assay of AIEC LF82 bacteria were performed using colonic tissue from transgenic mice expressing the human CEACAM6 protein (C. H. Chan, C. P. Stanners “Novel mouse model for carcinoembryonic antigen-based therapy”, Mol Ther. 2004; 9, 775-785). Briefly, 10 to 12-week-old FVB/N CEABAC10 transgenic mice were anesthetized, euthanized by cervical dislocation and colons were removed. Colons were washed twice in phosphate buffer saline (PBS) and were segmented in 4 independent loops of ≈0.6 cm. A volume of 100 μL of LF82 bacteria at 2×10^6 bacteria/mL in PBS or of a mix of LF82 bacteria+D-mannose (1 μmol and 10 μmol) or compound 13 (0.1 μmol and 0.01 μmol) were injected into the loops. Loops were incubated 1 h at 37° C. in an atmosphere containing 5% of CO2, and then opened and washed 4 times in PBS. Tissues were homogenized, appropriately diluted and plated onto Luria-Bertani agar plates containing ampicillin (100 μg/mL) and erythromycin (20 μg/mL) to select AIEC LF82 bacteria.
Entire colons from CEABAC10 mice were collected and washed two times with PBS. The colon was divided in 4 isolated loops and 100 μL of a bacterial suspension containing […] bacteria/mL with or without inhibitory compounds were injected into the loops. D-mannose was tested at a dose of 1 and 10 μmol and monovalent 13 was tested at a dose of 0.01 and 0.1 μmol. After a 1 h-period of incubation, samples were extensively washed and homogenized to numerate adherent bacteria. Bacterial adhesion was expressed as percentages of residual adhesion (100% corresponds to the adhesion in absence of any compound).

Caco-2 cells = experiment: Blockage of cytotoxic effect of microparticle-FimH, flow cytometry; assay type: cell-based; settings: Caco2
From the text: It was shown that upon binding of FimH adhesin to uroplakin UPIIIa its cytoplasmic tail undergoes phosphorylation on a specific threonine residue by casein kinase II, followed by an elevation of intracellular calcium triggering apoptosis (Thumbikat, P.; Berry, R. E.; Zhou, G.; Billips, B. K.; Yaggie, R. E.; Zaichuk, T.; Sun, T.-T.; Schaeffer, A. J.; Klumpp, D. J. PLoS Pathog 2009, 5, e1000415). […] It is needed to mentioned that according to our observations that Caco2 cells, unlike human blood cells, (Bilyy R. O.; Shkandina, T.; Tomin, A.; Muñoz, L E.; Franz, S.; Antonyuk, V.; Kit, Y. Y.; Zirngibl, M.; Fürnrohr, B. G.; Janko, C.; Lauber, K.; Schiller, M.; Schett, G.; Stoika, R. S.; Herrmann, M., J. Biol. Chem. 2012, 287, 496-503) are very quickly converted from apoptotic to secondary necrotic (PI-positive). […]
Cell viability was assessed by a trypan blue exclusion test. […]
Apoptotic cells were identified by using annexin V-FITC and PI, according to the manufacturer's protocol. […] Cells were then resuspended in a solution of annexin V-FITC and PI prepared in Ringer buffer, incubated 30 min at 4° C. in the dark, and analyzed on a FACS scan flow cytometer (BD Biosciences). A minimum of 10,000 events per sample was recorded. […]

human Jurkat T-cell line = experiment: Toxicity of 13 towards Jurkat T-cells; assay type: cell-based; settings: 100 nM

Structure (SMILES) | Inhibitory potency in haemagglutination (FIG. 2) (UTI89 E. coli) | Kd (lectin domain of FimH; measurement 1) | Kd (lectin domain of FimH; measurement 2) | Kd (FimH [1]) | Inhibitory potency in HAI (in words) [2] | Prevention of apoptosis induction by FimH (human Jurkat cells; 500 nM) | Toxicity to Jurkat cells (human Jurkat cells; tested concentrations, 24 h) | Level of inhibition compared to the HM reference (FimH [3]) | Concentration blocking FimH binding towards oligomannose glycans (FimH [3]; RNAseB substrate) | Residual adhesion ([4]; 0.1 μM) | Inhibitory effect on adhesion ([4]; 100 nM) | AIEC remaining attached to the cells (residual adhesion) ([4]; 1 μM) | Residual adhesion ([4]; 10 μM) | rIC relative to HM ([4]; dose-dependent inhibition similar to HM at 100-fold lower concentration) | Efficiency relative to D-mannose [5] | Bacterial adhesion ([5]; 0.1 μmol, 1 h) | Effect on amount of dead cell in population (Caco-2 cells; 100 nM alone) | Dead cells in population (Caco-2 cells; co-treatment with microparticles-FimH and 100 nM) | Toxicity towards human blood cells (Jurkat T-cell line) (human Jurkat T-cell line)
CC(=O)c1cnc(N[C@H]2O[C@H](CO)[C@@H](O)[C@H](O)[C@@H]2O)s1 [Compound 6, 5-acetyl-2-((α-D-mannopyranosyl)amino)thiazole] | equivalent to the one for HM | 216 nM | 220 ± 7.71 nM | 197 nM | less potent than HM | effectively prevented apoptosis induction | not toxic |  |  |  |  |  |  |  |  |  |  |  | 
Cc1nc(-c2cnccn2)sc1C(=O)c1cnc(N[C@H]2OC(CO)[C@@H](O)[C@H](O)C2O)s1 (mixture of isomers) [Compound 13, 2-(α-D-mannopyranosyl)amino-5-(4-methyl-2-(pyrazin-2-yl)thiazole-5-carbonyl)thiazole] |  |  |  |  | second most potent compound |  |  | significantly higher level of inhibition | 5 nM | 57.6% | significant inhibitory effect | 14% | 2.12% | ~0.01 | 100 fold | significant decrease | no significant effect | 16.5% | nontoxic
